Source: patent US12227501B2, “3-amino-2-[2-(acylamino)pyridin-4-yl]-1,5,6,7-tetrahydro-4h-pyrrolo[3,2-c]pyridin-4-one as CSNK1 inhibitors” (Bayer Aktiengesellschaft, priority 2019, dated 2025)
“And” between values parts separate entries of the source, which are not always exact repeats. Identical values can stand only once. Counter-ions that a name gives are not always drawn. Like-named read-outs stand apart in the source and are kept apart here.

Key:
Type in all cases: biochemical
[1] = target: wild-type Epidermal Growth Factor Receptor (EGFR) (Homo sapiens (Human), UniProt P00533); experiment: WT-EGFR Kinase Assay (TR-FRET, 2 mM ATP)
wild-type Epidermal Growth Factor Receptor (EGFR), sequence (P00533 669-1210): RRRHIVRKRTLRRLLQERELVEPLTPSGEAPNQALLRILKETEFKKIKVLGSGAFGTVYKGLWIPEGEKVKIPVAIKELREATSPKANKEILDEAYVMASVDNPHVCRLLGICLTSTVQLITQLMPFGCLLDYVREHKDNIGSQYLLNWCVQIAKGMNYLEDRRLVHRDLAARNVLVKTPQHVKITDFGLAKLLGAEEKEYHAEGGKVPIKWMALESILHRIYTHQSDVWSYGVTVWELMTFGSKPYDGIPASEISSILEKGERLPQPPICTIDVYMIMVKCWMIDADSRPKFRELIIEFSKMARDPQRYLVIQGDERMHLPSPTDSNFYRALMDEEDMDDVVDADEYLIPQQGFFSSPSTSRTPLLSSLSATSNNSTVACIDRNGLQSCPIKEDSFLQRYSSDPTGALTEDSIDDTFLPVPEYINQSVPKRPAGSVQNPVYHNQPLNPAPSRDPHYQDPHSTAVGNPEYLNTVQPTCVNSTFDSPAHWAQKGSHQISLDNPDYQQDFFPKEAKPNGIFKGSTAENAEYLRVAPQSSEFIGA

[2] = target: T1, human CSNK1A1 (Homo sapiens (Human), UniProt P48729); experiment: CSNK1A1 High ATP Assay (ADP-Glo, 1 mM ATP); conditions: read-out: CSNK1A1 high ATP assay IC50 [mol/l] (median)
T1 sequence (P48729 whole entry): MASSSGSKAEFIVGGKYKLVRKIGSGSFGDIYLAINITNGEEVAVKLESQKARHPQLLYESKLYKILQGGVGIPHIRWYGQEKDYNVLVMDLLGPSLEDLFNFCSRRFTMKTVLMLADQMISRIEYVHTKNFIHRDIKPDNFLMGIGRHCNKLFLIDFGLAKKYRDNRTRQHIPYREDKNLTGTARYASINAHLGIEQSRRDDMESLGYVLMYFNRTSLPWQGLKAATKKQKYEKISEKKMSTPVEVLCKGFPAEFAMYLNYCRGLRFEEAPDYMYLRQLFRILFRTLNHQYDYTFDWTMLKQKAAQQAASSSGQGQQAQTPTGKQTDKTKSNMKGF
Description: CSNK1A1-inhibitory activity of compounds of the present invention in presence of 1 mM adenosine-tri-phosphate (ATP) was quantified employing the CSNK1A1-high-ATP-assay as described in the following paragraphs. In essence, the enzyme activity is measured by quantification of the adenosine-di-phosphate (ADP), which is generated as a co-product of the enzyme reaction, via the “ADP-Glo™ Kinase Assay” kit from the company Promega. This detection system works as follows: In a first step the ATP not consumed in the kinase reaction is quantitatively converted to cAMP employing an adenylate cyclase (“ADP-Glo-reagent”), then the adenylate cyclase is stopped and the ADP generated in the kinase reaction converted to ATP which generates in a luciferase-based reaction a glow-luminescence signal (“Kinase Detection Reagent”).
Recombinant fusion protein of N-terminal Glutathion-S-Transferase (GST) and full-length human CSNK1A1, expressed by baculovirus infected insect cells and purified via Glutathion affinity chromatography, was purchased from Life Technologies (product no. PV4174) and used as enzyme. As substrate for the kinase reaction the biotinylated peptide biotin-Ahx-KRRRAL-pS-VASLPGL (C-terminus in amide form) was used which can be purchased e.g. from the company Biosyntan (Berlin-Buch, Germany).
For the assay 50 nl of a 100 fold concentrated solution of the test compound in DMSO was pipetted into a white low volume 384-well microtiter plate (Greiner Bio-One, Frickenhausen, Germany), 2 μL of a solution of CSNK1A1 in aqueous assay buffer [50 mM HEPES pH 7.5, 10% (v/v) glycerol, 10 mM MgCl2, 50 mM NaCl, 1 mM dithiothreitol, 0.01% (w/v) bovine serum albumin, 0.01% (v/v) Triton X-100] were added and the mixture was incubated for 15 min at 22° C. to allow pre-binding of the test compounds to the enzyme before the start of the kinase reaction. […] The concentration of CSNK1A1 was adjusted depending of the activity of the enzyme lot and was chosen appropriate to have the assay in the linear range, a typical concentration is about 0.4 ng/μL. The reaction was stopped by the addition of 2.5 μL of “ADP-Glo-reagent” (1:1.5 fold diluted with water) and the resulting mixture was incubated at 22° C. for 1 h to convert the ATP not consumed in the kinase reaction completely […]. Subsequently 2.5 μL of the “kinase detection reagent” (1.2 fold more concentrated than recommended by the producer) were added, the resulting mixture was incubated at 22° C. for 1 h and then the luminescence measured with a suitable measurement instrument (e.g. Viewlux™ from Perkin-Elmer). The amount of emitted light was taken as a measure for the amount of ADP generated and thereby for the activity of the CSNK1A1.

[3] = target: T1, human CSNK1A1; experiment: CSNK1A1 Assay 2 (ADP-Glo, 1 μM ATP); conditions: substrate biotin-Ahx-KRRRAL-pS-VASLPGL, read-out: CSNK1A1 Assay 2 IC50 [mol/l] (median)
Description: CSNK1A1-inhibitory activity of compounds of the present invention in presence of 1 μM adenosine-tri-phosphate (ATP) was quantified employing the CSNK1A1 assay as described in the following paragraphs. In essence, the enzyme activity is measured by quantification of the adenosine-di-phosphate (ADP), which is generated as a co-product of the enzyme reaction, via the “ADP-Glo™ Kinase Assay” kit from the company Promega. This detection system works as follows: In a first step the ATP not consumed in the kinase reaction is quantitatively converted to cAMP employing an adenylate cyclase (“ADP-Glo-reagent”), then the adenylate cyclase is stopped and the ADP generated in the kinase reaction converted to ATP which generates in a luciferase-based reaction a glow-luminescence signal (“Kinase Detection Reagent”). Recombinant fusion protein of N-terminal Glutathion-S-Transferase (GST) and full-length human CSNK1A1, expressed by baculovirus infected insect cells and purified via Glutathion affinity chromatography, was purchased from Life Technologies (product no. PV4174) and used as enzyme. As substrate for the kinase reaction the biotinylated peptide biotin-Ahx-KRRRAL-pS-VASLPGL (C-terminus in amide form) was used which can be purchased e.g. from the company Biosyntan (Berlin-Buch, Germany).
For the assay 50 nl of a 100 fold concentrated solution of the test compound in DMSO was pipetted into a white 1536-well microtiter plate (Greiner Bio-One, Frickenhausen, Germany), 2 μL of a solution of CSNK1A1 in aqueous assay buffer [50 mM HEPES pH 7.5, 10% (v/v) glycerol, 10 mM MgCl2, 50 mM NaCl, 1 mM dithiothreitol, 0.01% (w/v) bovine serum albumin, 0.01% (v/v) Triton X-100] were added and the mixture was incubated for 15 min at 22° C. to allow pre-binding of the test compounds to the enzyme before the start of the kinase reaction. […] The concentration of CSNK1A1 was adjusted depending of the activity of the enzyme lot and was chosen appropriate to have the assay in the linear range, a typical concentrations are about 0.0375 ng/μL. The reaction was stopped by the addition of 2.5 μL of “ADP-Glo-reagent” (1:1.5 fold diluted with water) and the resulting mixture was incubated at 22° C. for 1 h to convert the ATP not consumed in the kinase reaction completely […]. Subsequently 2.5 μL of the “kinase detection reagent” (1.2 fold more concentrated than recommended by the producer) were added, the resulting mixture was incubated at 22° C. for 1 h and then the luminescence measured with a suitable measurement instrument (e.g. Viewlux™ from Perkin-Elmer). The amount of emitted light was taken as a measure for the amount of ADP generated and thereby for the activity of the CSNK1A1.

[4] = target: human CSNK1D (Homo sapiens (Human), UniProt P48730); experiment: CSNK1D Assay (ADP-Glo, 1 μM ATP); conditions: read-out: CSNK1D IC50 [mol/l] (median)
human CSNK1D, sequence (P48730 whole entry): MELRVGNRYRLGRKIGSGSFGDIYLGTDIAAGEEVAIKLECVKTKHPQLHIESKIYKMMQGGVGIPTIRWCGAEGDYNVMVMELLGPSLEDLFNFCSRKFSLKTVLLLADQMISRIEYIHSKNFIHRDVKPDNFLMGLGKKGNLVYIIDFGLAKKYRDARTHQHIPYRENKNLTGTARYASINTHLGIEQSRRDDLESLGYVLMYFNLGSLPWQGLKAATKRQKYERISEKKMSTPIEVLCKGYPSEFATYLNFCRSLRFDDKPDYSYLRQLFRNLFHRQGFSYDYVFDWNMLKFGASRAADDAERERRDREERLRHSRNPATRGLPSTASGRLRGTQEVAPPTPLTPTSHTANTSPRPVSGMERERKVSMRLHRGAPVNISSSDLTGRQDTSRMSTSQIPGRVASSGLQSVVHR
Description: CSNK1 D-inhibitory activity of compounds of the present invention in presence of 1 μM adenosine-tri-phosphate (ATP) was quantified employing the CSNK1D assay as described in the following paragraphs. In essence, the enzyme activity is measured by quantification of the adenosine-di-phosphate (ADP), which is generated as a co-product of the enzyme reaction, via the “ADP-Glo™ Kinase Assay” kit from the company Promega. This detection system works as follows: In a first step the ATP not consumed in the kinase reaction is quantitatively converted to cAMP employing an adenylate cyclase (“ADP-Glo-reagent”), then the adenylate cyclase is stopped and the ADP generated in the kinase reaction converted to ATP which generates in a luciferase-based reaction a glow-luminescence signal (“Kinase Detection Reagent”). Recombinant fusion protein of N-terminal Glutathion-S-Transferase (GST) and full-length human CSNK1D, expressed by baculovirus infected insect cells and purified via Glutathion affinity chromatography, was purchased from Life Technologies (product no. PV3665) and used as enzyme. As substrate for the kinase reaction the biotinylated peptide Btn-Ahx-[…] (C-terminus in amide form) was used which can be purchased e.g. from the company Biosyntan (Berlin-Buch, Germany).
For the assay 50 nl of a 100 fold concentrated solution of the test compound in DMSO was pipetted into a white 1536-well microtiter plate (Greiner Bio-One, Frickenhausen, Germany), 2 μL of a solution of CSNK1D in aqueous assay buffer [50 mM HEPES pH 7.5, 10% (v/v) glycerol, 10 mM MgCl2, 50 mM NaCl, 1 mM dithiothreitol, 0.01% (w/v) bovine serum albumin, 0.01% (v/v) Triton X-100] were added and the mixture was incubated for 15 min at 22° C. to allow pre-binding of the test compounds to the enzyme before the start of the kinase reaction. […] The concentration of CSNK1 D was adjusted depending of the activity of the enzyme lot and was chosen appropriate to have the assay in the linear range, a typical concentration is about 0.5 ng/μL. The reaction was stopped by the addition of 2.5 μL of “ADP-Glo-reagent” (1:1.5 fold diluted with water) and the resulting mixture was incubated at 22° C. for 1 h to convert the ATP not consumed in the kinase reaction completely […]. Subsequently 2.5 μL of the “kinase detection reagent” (1.2 fold more concentrated than recommended by the producer) were added, the resulting mixture was incubated at 22° C. for 1 h and then the luminescence measured with a suitable measurement instrument (e.g. Viewlux™ from Perkin-Elmer). The amount of emitted light was taken as a measure for the amount of ADP generated and thereby for the activity of the CSNK1D.

[5] = EGFR Wildtyp- 2 mM ATP IC50 [mol/l] (median)
[6] = read-out: EGFR Wildtyp- 2 mM ATP IC50 [mol/l] (median)

SMILES | IC50 [1, 5] [nM] | IC50 [2] | IC50 [3] [nM] | IC50 [1, 6] [nM] | IC50 [4] [nM]
CN1CCc2[nH]c(-c3ccnc(NC(=O)C(CCN4CCOCC4)c4ccccc4)c3)c(Nc3ccccc3)c2C1=O (single isomer, unassigned) [Example 31, N-[4-(3-anilino-5-methyl-4-oxo-4,5,6,7-tetrahydro-1H-pyrrolo[3,2-c]pyridin-2-yl)pyridin-2-yl]-4-(morpholin-4-yl)-2-phenylbutanamide] | > 20000 | 249 nM | 3.85 |  | 
CN1CCc2[nH]c(-c3ccnc(NC(=O)C(CCN4CCOCC4)c4ccccc4)c3)c(Nc3ccccc3)c2C1=O (single isomer, unassigned) [Example 32, N-[4-(3-anilino-5-methyl-4-oxo-4,5,6,7-tetrahydro-1H-pyrrolo[3,2-c]pyridin-2-yl)pyridin-2-yl]-4-(morpholin-4-yl)-2-phenylbutanamide] |  | 4560 nM | 72.2 | > 20000 | 
CN1CCc2[nH]c(-c3ccnc(NC(=O)C(CC(F)F)c4ccccc4)c3)c(Nc3ccccc3)c2C1=O (single isomer, unassigned) [Example 34, N-[4-(3-anilino-5-methyl-4-oxo-4,5,6,7-tetrahydro-1H-pyrrolo[3,2-c]pyridin-2-yl)pyridin-2-yl]-4,4-difluoro-2-phenylbutanamide] | > 20000 | 16.5 nM | 2.68 |  | 
CN1CCc2[nH]c(-c3ccnc(NC(=O)C(CC(F)F)c4ccccc4)c3)c(Nc3ccccc3)c2C1=O (single isomer, unassigned) [Example 35, N-[4-(3-anilino-5-methyl-4-oxo-4,5,6,7-tetrahydro-1H-pyrrolo[3,2-c]pyridin-2-yl)pyridin-2-yl]-4,4-difluoro-2-phenylbutanamide] | 14800 | 705 nM | 20.5 |  | 
CC(C(=O)Nc1cc(-c2[nH]c3c(c2Nc2ccccc2)C(=O)NC(C)(C)C3)ccn1)c1ccc(F)cc1 (single isomer, unassigned; (+)) [Example 40, (+)-N-[4-(3-anilino-6,6-dimethyl-4-oxo-4,5,6,7-tetrahydro-1H-pyrrolo[3,2-c]pyridin-2-yl)pyridin-2-yl]-2-(4-fluorophenyl)propanamide] |  | 51.7 nM | 4.59 |  | 10.5
CN1C(=O)c2c([nH]c(-c3ccnc(NC(=O)C(CC(F)F)c4ccc(F)cc4)c3)c2Nc2ccccc2)CC12CCC2 (single isomer, unassigned; enantiomer 1) [Example 161, (−)-N-[4-(3′-anilino-5′-methyl-4′-oxo-1′,4′,5′,7′-tetrahydrospiro[cyclobutane-1,6′-pyrrolo[3,2-c]pyridin]-2′-yl)pyridin-2-yl]-4,4-difluoro-2-(4-fluorophenyl)butanamide (Enantiomer 1)] | > 20000 | > 20000 nM and 19100 nM and 10600 nM and 14600 nM |  |  | 360
CN(C)CCC(C(=O)Nc1cc(-c2[nH]c3c(c2Nc2ccccc2)C(=O)N(C)CC3)ccn1)c1ccccc1 (centres unmarked) [Example 38, N-[4-(3-anilino-5-methyl-4-oxo-4,5,6,7-tetrahydro-1H-pyrrolo[3,2-c]pyridin-2-yl)pyridin-2-yl]-4-(dimethylamino)-2-phenylbutanamide] |  | 1290 nM | 14.6 | 6690 | 
CN1CCc2[nH]c(-c3ccnc(NC(=O)Cc4ccc(N(C)C)cc4)c3)c(Nc3ccccc3)c2C1=O [Example 84, N-[4-(3-anilino-5-methyl-4-oxo-4,5,6,7-tetrahydro-1H-pyrrolo[3,2-c]pyridin-2-yl)pyridin-2-yl]-2-[4-(dimethylamino)phenyl]acetamide] |  | 217 nM | 2.64 |  | 8.5
Cc1ccccc1Nc1c(-c2ccnc(NC(=O)Cc3ccc(F)cc3)c2)[nH]c2c1C(=O)NC(C)(C)C2 [Example 113, N-{4-[6,6-dimethyl-3-(2-methylanilino)-4-oxo-4,5,6,7-tetrahydro-1H-pyrrolo[3,2-c]pyridin-2-yl]pyridin-2-yl}-2-(4-fluorophenyl)acetamide] | > 5710 |  |  |  | 
CC1(C)Cc2[nH]c(-c3ccnc(NC(=O)Cc4ccc(F)cc4)c3)c(Nc3cccc(F)n3)c2C(=O)N1 [Example 127, 2-(4-fluorophenyl)-N-(4-{3-[(6-fluoropyridin-2-yl)amino]-6,6-dimethyl-4-oxo-4,5,6,7-tetrahydro-1H-pyrrolo[3,2-c]pyridin-2-yl}pyridin-2-yl)acetamide-1,1′,1″-phosphoryltripyrrolidine salt] | 16900 |  |  |  | 
